In patent publication US20090215669A1, “COMPOSITIONS AND METHODS FOR TREATMENT OF DIABETES” (DIA-B TECH LIMITED, priority 2005, published 2009):
“And” between values parts separate entries of the source, which are not always exact repeats. Equal values may be shown once. Ends that are not written are not given here. Peptide text beside a SMILES is read from it.

Tests used:
[1] = Oral administration of 14C-ISF402: radioactivity in blood, serum and urine; format: in vivo, rat
Experimental: (§1) ^14C-ISF402 (22.7 μCi/mg) was dissolved in water and diluted with unlabelled ISF402 to a concentration of 30 mg/mL for oral and 4.5 mg/mL for intravenous (IV) administration. The day before the experiment 16-18 week female Zucker fa/fa rats (300-400 g) rats were fasted overnight with free access to water before oral administration of ^14C-ISF402 by gavage at 30 mg/kg, 260-263.7 kBq/kg (5.0-5.1 μCi/kg) or IV with 4.5 mg/kg, 103.0-107.3 kBg/kg (1.98-2.06 μCi/kg). After administration of ^14C-ISF402 rats were placed into metabolic cages with free access to food and water.
(§2) Blood samples were collected from the tail vein over the 7 hour time course. Urine was collected at 4 and 12 hours after administration. Whole blood samples (100 μL) were collected and placed into dry ice then stored at −80° C. 50 μL of serum from whole blood was collected into T-MG clotting capiject tubes (Terumo, Elkton, Md.). Sera were separated by centrifuging blood for 90 seconds at 3000×g at room temperature. 100 μL and 50 μL of whole blood and serum, respectively was used for the measurement of radioactivity. The whole blood and serum samples were solubilized with 2 volumes of sample, 2 volumes of 1.4M NaOH and 1 volume of 30 percent hydrogen peroxide. The final volume was made to 1 mL by the addition of distilled water. 4 mL of HiSafe3 Optiphase (PerkinElmer, Boston, Mass.) was added and radioactivity determined in a Wallac Scintillation counter.
(§3) Urine was frozen at −20° C. until analysed for radioactivity. After measuring the total volume of urine, 100 μL of urine and 100 μL ethanol was added to 4 mL scintillant. Samples were left overnight after the addition of scintillant then counted for radioactivity using a Wallac 1409 liquid scintillant counter (PerkinElmer, Boston, Mass.). Radioactivity in all samples was counted several times over the course of 4 weeks until readings were consistent. Radioactivity was expressed as μg equivalent (eq.)/mL. This was calculated from the dpm per mL of sample divided by the specific radioactivity of the peptide administered. The integrity of the radiolabelled peptide in serum and urine samples was determined by reverse phase HPLC as described above.

[2] = Intravenous administration of 14C-ISF402: radioactivity in blood and serum; format: in vivo, rat
Experimental: as §1, §2, §3

[3] = test system: female Zucker fa/fa rats; experiment: Intravenous injection of female Zucker fa/fa rats: blood glucose, serum insulin, C-peptide, triglyceride; format: in vivo, rat; conditions: iv, Lispro insulin 1 U/kg alone, 60 minutes after injection
[4] = molecular target: T1, Zinc-insulin hexamers (Bos taurus, UniProt P01317); experiment: Circular dichroism of zinc-insulin hexamers (dispersal); format: biochemical, bovine; conditions: Zn-insulin 1 mg/mL; for CD signal at 275 nm of Zn-insulin upon addition: ISF401 1 μL of 100 mM, EDTA 4 mM
T1 construct: Zinc-insulin hexamers were prepared by dissolving bovine insulin containing 0.6% zinc
Experimental: Zinc-insulin hexamers were prepared by dissolving bovine insulin containing 0.6% zinc in […] then raising the pH to 7.2-7.4 by addition of NaOH. HEPES buffer was added to give a final solution of 1 mg/mL insulin in 25 mM HEPES buffer (pH 7.2). The CD spectrum of insulin or ISF401 was measured from […] at 20° C. on a Jasco J-810 spectropolarimeter equipped with a PFD 423S/L Peltier type temperature controller. 200 μL of sample was placed in a quartz cuvette, with path length of 1 mm, in the spectropolarimeter and the CD spectrum was recorded. Each spectrum represents an average of 3-5 scans performed at 100 nm/min with a band width of 1 nm. The effect of ethylenediamine tetraacetic acid (EDTA) and ISF401 were measured by adding an aliquot of EDTA (4 mM) or an aliquot of ISF401 (100 mM) and measuring the CD spectrum.
To test dispersal of insulin hexamers by ISF401, circular dichroism (CD) was used.
The CD signal at 275 nm was used to measure the association state of insulin in the presence of ISF401 (1 μL of 100 mM), EDTA ([…] of 4 mM) and deionised water (1 μL).

[5] = molecular target: T2, hexameric insulin (Homo sapiens, UniProt P01308); experiment: Size exclusion chromatography of hexameric insulin with test peptide; format: biochemical
T2 construct: correspond to dimeric insulin (11.8 kDa) and monomeric (5.8 kDa) insulin respectively; purchased Sigma 19278
Experimental: Size exclusion chromatography was used to study the effect of GHTD-amide (ISF401) on hexameric insulin. Recombinant Human Insulin solution (Sigma 19278) was diluted to 2 mg/mL with 10 mM Tris pH 7.4 and dialysed against 10 mM Tris pH 7.4 (to remove HEPES which absorbs strongly at 214 nm and coelutes with GHTD-amide). Insulin stock solution at 1.5 mg/mL was then prepared by addition of phenol to 4 mM, NaCl to 140 mM and ZnCl2 to 100 μM. Prior to size exclusion chromatography stock insulin was mixed either with water or test peptide to give a final concentration 1 mg/mL each of insulin and test peptide when applicable, and 10 mM Tris pH 7.4, 140 mM NaCl and […] ZnCl2 then incubated at room temperature for 1 hour. Samples of insulin or mixtures (800 μL) were then subjected to size exclusion chromatography using a 1×30 cm Superdex 75 HR 10/30 column at a flow rate of 0.1 mL min^−1 with an eluent comprising Tris-buffered isotonic saline (140 mM NaCl, 10 mM Tris/HCl pH 7.4, 60 μM ZnCl2) at a flow rate of 0.1 mL min^−1, UV detection at 214 nm and 276 nm, and collection of 0.5 mL fractions for protein determination. Protein size standards Aprotinin (6 kDa) and Carbonic Anhydrase (29 kDa) run under the same conditions eluted at 18.85 mL and 14.75 mL respectively. The gel matrix, which has a fractionation range of 3,000 to 70,000 Da, and sample volume loaded were chosen to ensure that the two peptides remained in contact within the gel matrix thereby allowing interaction to occur between the two during the separation process. The concentration of insulin was maintained at 1 mg/mL at pH 7.4 in the presence of 2 Zn^2+/hexamer since it has been shown that at this concentration insulin exists predominantly as Zn^2+-dependent hexamers.

[6] = IV 4.5 mg/kg, 2 minutes after injection
[7] = IV 4.5 mg/kg, 90 minutes after injection, assuming radioactivity is intact ISF402
[8] = after incubation with test peptide, 276 nm

T2 sequence (P01308 25-54 limits assumed): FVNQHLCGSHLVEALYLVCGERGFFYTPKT
T2 sequence (P01308 90-110 limits assumed): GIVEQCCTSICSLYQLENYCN
T1 sequence (P01317 25-54 limits assumed): as the sequence (P01308 25-54 limits assumed) above, with T30A counted along it
T1 sequence (P01317 85-105 limits assumed): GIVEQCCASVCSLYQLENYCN

For `CC(C)[C@H](N)C(=O)N[C@@H](Cc1c[nH]cn1)C(=O)N[C@H](C(=O)N[C@@H](CC(=O)O)C(N)=O)[C@@H](C)O` [14C-ISF402] (H-VHTD-NH2), the “concentration in whole blood and sera” value ([1]; 30 minutes after oral dosing) was “Approximately 4 μg/mL”, the “time to appearance in the circulation after dosing” value ([1]; oral 30 mg/kg) was ≤ 30 min and the “concentration in whole blood (radioactivity)” value ([1]; oral 30 mg/kg, 7 hours) was 44.2 ± 2.5 µg/mL. The “concentration in sera (radioactivity)” value ([1]; oral 30 mg/kg, after 90 minutes) was 22.1 ± 4.9 µg/mL, the “concentration in whole blood (radioactivity)” value ([1]; oral 30 mg/kg, after 90 minutes, assuming labelled ISF402 still intact) was 23.7 ± 2.1 µg/mL and the level at 2 h ([1]; rat, in vivo, 30 mg/kg, 120 minutes after oral dosing, read-out: ISF402 levels in the circulation) was > 20000 ng/mL. For the same molecule, the “composition of radioactivity in urine” value ([1]; urine collected over 4 hours after dosing) was “mixture of degraded peptide and intact ISF402”, the “share of radioactivity in urine associated with intact ISF402” value ([1]; urine collected over 12 hours after administration) was 47% and 46% and the “radioactivity retrieved in urine, of the total radioactive ISF402 administered” value ([1]; urine, 12 hours) was 0.97±0.13%. For the same molecule, the “share of radioactivity in urine associated with free Valine” value ([1]; urine, 12 hours after administration) was 32%, the “concentration in serum (radioactivity)” value [2, 6] was 24.8 ± 0.3 µg/mL and the “concentration in whole blood (radioactivity)” value [2, 6] was 12 ± 1 µg/mL. For the same molecule, the “concentration in serum (radioactivity)” value [2, 7] was 8 ± 2 µg/mL, the “concentration in whole blood (radioactivity)” value [2, 7] was 3.4 ± 1.3 µg/mL and the level at 7 h ([2]; rat, in vivo, IV 4.5 mg/kg, 7 hours, read-out: concentration detected at the conclusion of the time course) was 2200 ± 1500 ng/mL. The “integrity of peptide in serum by reverse phase HPLC” value ([2]; serum collected 2 minutes after IV administration) was “intact”.
For “Lispro insulin: altered form of human insulin that does not form stable hexamers; Lispro (Humalog), Eli Lilly [reference compound]”, the “reduction in blood glucose” value [3] was 0.90 ± 0.77 mmol/L.
With `O=C(O)CN(CCN(CC(=O)O)CC(=O)O)CC(=O)O` [EDTA, ethylenediamine tetraacetic acid, reference compound] the “CD signal at 275 nm of Zn-insulin upon addition” value [4] was “increased”.
With Gly-His-Thr-Asp-NH2 (GHTD-NH2) [ISF401] the “molar excess to insulin at maximum dispersion of insulin hexamers” value [4] was 10 fold, the “CD signal at 275 nm of Zn-insulin upon addition” value [4] was “increased” and the “dissociation of hexameric insulin after incubation with test peptide” value ([5]; 1 mg/mL each of insulin and peptide, 1 hour room temperature, monitoring at 276 nm) was “cause the dissociation (disaggregation) of hexamers to dimeric and monomeric forms”. For the same molecule, the “elution volume of emerging peak corresponding to dimeric insulin (11.8 kDa)” value [5, 8] was 15.085 mL and the “elution volume of emerging peak corresponding to monomeric (5.8 kDa) insulin” value [5, 8] was 19.045 mL.
